Laboratory results from US20070009617A1, “Method for preventing fungal growth in plants” (priority 2003, published 2007).

Key:
Assay in all cases: mycelial growth from inoculum plugs in amended basal nutrient solution
Rhizoctonia solani = type: cell-based; conditions: fungicide control
Method: (§1) The efficacy of the garlic extract was tested against nine (9) soil-borne fungi that cause root and lower stem rots of plants. The fungal pathogens included: Pythium aphanidermatum, Pythium irregular, Pythium ultimum, Phytophthora capsici, Phytophthora cinnamomi, Phytophthora nicotiana, Rhizoctonia solani, Fusarium oxysporum fsp. lycopersici, Fusarium oxysporum f.sp. spinaciae, and Thielaviopsis basicola. All isolates used in this investigation were known to be pathogenic to various cultivated plant species.
(§2) All isolates of Pythium aphanidermatum, Pythium irregular, Pythum ultimum, Phytophthora capsici, Phytophthora cinnamomi, Phytophthora nicotiana, Rhizoctonia solani, Fusarium oxysporum f.sp. lycopersici, Fusarium oxysporum f.sp. spinaciae were grown on standard corn meal agar (CMA) for 8 to 9 days. Plugs from inoculum plates were taken using a #4 cork borer (5 mm diameter). Inoculum plugs were placed into 5-cm sterile plastic petri dishes containing 10 ml of a basal nutrient solution that consisted of 60% (v/v) clarified V-8 juice and sterile distilled water (SDW). Basal nutrient solutions were amended with the appropriate treatments. […] Cultures were placed into a growth chamber and maintained in the dark at 22(C(1(C. After 48 hours, mycelial growth (if any was visible) from culture plugs was measured.

[1] = tested on: Pythium aphanidermatum, Pythium irregular, Pythium ultimum; type: cell-based, Pythium species; conditions: basal nutrient solution amended with fungicide control; 48 hours
Method: as §1, §2

[2] = tested on: Phytophthora capsici, Phytophthora cinnamomi, Phytophthora nicotiana; type: cell-based, Phytophthora species; conditions: basal nutrient solution amended with fungicide control; 48 hours
Method: as §1, §2

Compound	growth on amended basal nutrient solution (Rhizoctonia solani; first replication (inappropriate concentration))	growth on amended basal nutrient solution (Rhizoctonia solani; second replication)	growth from the inoculum plugs [1]	growth from the inoculum plugs [2]
O=[N+]([O-])c1c(Cl)c(Cl)c(Cl)c(Cl)c1Cl [PCNB]	limited amount of growth	did not grow	–	–
COCC(=O)N(c1c(C)cccc1C)C(C)C(=O)OC (stereo not shown) [metalaxyl]	–	–	none	none
